Data as given in paper PMC4919066 (PLoS Pathogens, 2016).
Structures can show the parent of a compound that is named as a salt.

What was measured:
[1] = test system: pp28-luciferase HCMV Towne; test: microbe, parasite or virus in culture; assay type: cell-based, Human Cytomegalovirus; conditions: for normalized pp28-luciferase activity: emetine 75 nM, 72 hpi
Experimental: The pp28-luciferase HCMV Towne and a GCV-resistant pp28-luciferase were used. The recombinant viruses express luciferase under the control of the late CMV gene promoter, pp28. Luciferase expression is activated 48–72 hours post infection (hpi). The recombinant viruses provide a highly-sensitive reporter system which correlates with plaque reduction assay. […] Human herpes virus strains were: luciferase HSV1- KOS/Dlux/oriS [52] and clinical isolates of HSV2. The clinical isolates were provided by the clinical microbiology laboratory with no identifiers that can link to a specific subject.
Infection with HCMV or HSV was performed in HFFs, and infection with mouse CMV was performed in MEFs. For HCMV, cells were seeded in either a 96-well plate or 100 mm culture plates (Corning Costar, Sigma Aldrich) at 0.5 or 2 million cells /plate. Following 90 minute adsorption, media was removed and cells were washed with PBS. Media containing 4% FBS and compounds were added to each well. Infected treated HFFs were collected at 72 hpi and lysates were assayed for luciferase activity using a luciferase assay kit (Promega, Madison, WI) on GloMax-Multi+ Detection System (Promega). In second cycle assays, supernatants were collected from all conditions of the first cycle at 96 hpi and used for infection of fresh HFFs in 96-well plates. […] For HSV1-KOS/Dlux/oriS, a luciferase assay was performed at 24 hpi. […] For HCMV or MCMV, HFFs or MEFs were seeded at 0.5 or 2 million cells /plate in a 12-well plate and infected 24 hours later at 100 PFU/well. Following virus adsorption (60 min and 90 min for HSV and HCMV, respectively), virus was aspirated, and DMEM containing 4% fetal bovine serum (FBS) with (for HSV) or without (for HCMV/MCMV) 0.5% carboxymethyl-cellulose, were added with the compounds at indicated concentrations into triplicate wells. After incubation at 37°C for 10 days (for HCMV), 3 days for MCMV or 2 days (for HSV), the overlay was removed and plaques were counted after crystal violet staining.

[2] = test system: pp28-luciferase HCMV Towne; test: Drug combination with GCV, Bliss model; assay type: cell-based, Human Cytomegalovirus; conditions: emetine combined with GCV, luciferase assay
Experimental: The combined inhibitory effect of compounds on HCMV replication was determined in infected HFFs as previously reported. The Bliss model, in which drug combination represents the product of two probabilistically independent events, was used for analysis.

[3] = test system: pp28-luciferase HCMV Towne; test: Second cycle infection luciferase assay; assay type: cell-based, Human Cytomegalovirus; conditions: emetine 75 nM
Experimental: Human Foreskin Fibroblasts (HFFs) passage 12–16 (ATCC, CRL-2088) and mouse embryonic fibroblasts (MEFs) passage 9–14 (ATCC, CRL-1658) were grown in Dulbecco's Modified Eagle Medium (DMEM) containing 10% fetal bovine serum (FBS) (Gibco, Carlsbad, CA) in a 5% CO2 incubator at 37°C. Infection with HCMV or HSV was performed in HFFs, and infection with mouse CMV was performed in MEFs. For HCMV, cells were seeded in either a 96-well plate or 100 mm culture plates (Corning Costar, Sigma Aldrich) at 0.5 or 2 million cells /plate. Following 90 minute adsorption, media was removed and cells were washed with PBS. Media containing 4% FBS and compounds were added to each well. Infected treated HFFs were collected at 72 hpi and lysates were assayed for luciferase activity using a luciferase assay kit (Promega, Madison, WI) on GloMax-Multi+ Detection System (Promega). In second cycle assays, supernatants were collected from all conditions of the first cycle at 96 hpi and used for infection of fresh HFFs in 96-well plates. Luciferase activity was measured 72 h following second cycle infection. For HSV1-KOS/Dlux/oriS, a luciferase assay was performed at 24 hpi. […] After incubation at 37°C for 10 days (for HCMV), 3 days for MCMV or 2 days (for HSV), the overlay was removed and plaques were counted after crystal violet staining.

[4] = biological target: RPS14 (Homo sapiens, UniProt P62263); test: RPS14 nuclear localization, confocal microscopy; assay type: cell-based; conditions: emetine 75 nM, infected high-density cells
Experimental: Cells were fixed with 3.7% paraformaldehyde for 20 min at room temperature, permeabilized with ice cold methanol for 10 min at -20°C and blocked with 5% bovine serum albumin in 0.5% Tween-20 for 20 min at room temperature. Cells were incubated with primary antibodies at 4°C overnight, washed and incubated with fluorescently-labeled secondary antibodies for 2 h at 37°C. Fluorescence microscopy was performed using a confocal laser scanning microscope (Nikon EZ C1). All images were captured at 60X magnification and processed under identical conditions with constant parameters (including scan speed and excitation and emission wavelengths) using Nikon EZ C1 software. Data analysis (percent nuclear localization) was performed by NIS-Elements software (Nikon) for a minimum of 40 cells in the high-density and 25 cells in the low-density samples from two fields per condition.

[5] = biological target: T1, RPS14-MDM2 (Homo sapiens, UniProt P62263); test: Co-immunoprecipitation RPS14-MDM2; assay type: cell-based; conditions: emetine 75 nM, infected high-density cells, 24 hpi, MG132
T1 construct: endogenous in cells; host or cells: HFFs (ATCC CRL-2088), infected with HCMV Towne, MG132-treated
Experimental: Non-infected, infected or emetine-treated HFFs were treated with MG132 (10 μM) for 12h. Cells were harvested after 24 hpi and lysed with IP buffer containing 150 mM NaCl, 50mM Tris pH 7.5, 2 mM EDTA, 0.5% TritonX-100 and 0.5% NP-40-40. 1 mg of lysate was precleared with bead slurry for 30 min. The precleared lysates were incubated with anti-MDM2 (2 μg) antibody overnight. The antibody complexes were isolated using protein A/G beads (Santa Cruz), washed three times with 50% IP buffer. The immunoprecipitate-protein A/G beads were boiled in SDS sample buffer, and the supernatant was analyzed on SDS-PAGE gels after immunoblotting as described previously. 1% of the cell lysate used for IP was loaded on gels as ‘Input’. Confirmatory reverse IPs were performed as described in each experiment. Isotype control antibodies included: rabbit IgG polyclonal, mouse IgG2a kappa and mouse IgG2b kappa monoclonal (Abcam). Mouse monoclonal RPS19 antibody (Abcam) served as an additional negative control for the IPs. Densitometry analysis was performed to determine relative ratio of immunoprecipitated protein to its input level.

CC[C@H]1CN2CCc3cc(OC)c(OC)cc3[C@@H]2C[C@@H]1C[C@H]1NCCc2cc(OC)c(OC)cc21 [emetine, emetine dihydrochloride hydrate]
EC50 ([1]; Human betaherpesvirus 5, read-out: EC50 against pp28-luciferase Towne): 40 ± 1.72 nM | normalized pp28-luciferase activity ([1]; increased cell density): significant reduction | normalized pp28-luciferase activity ([1]; low cell density): no reduction | Hill slope of the concentration-response curve ([1]; pp28-luciferase Towne, HFFs): 3.1 | HCMV inhibition in combination with GCV [2]: synergistic | increase in pp28-luciferase activity, second cycle infection, compared to infected control ([3]; 0.5 million cells/plate): 1.5 fold | pp28-luciferase activity, second cycle infection, compared to infected control ([3]; 1 and 2 million cells/plate): near complete inhibition | nuclear localization of RPS14 ([4]; 24 hpi): 66% | nuclear localization of RPS14 ([4]; 72 hpi): 11% | interaction between RPS14 and MDM2 [5]: strongly induced the interaction between RPS14 and MDM2
